This is an account of results in patent US20230257372A1 (CHONG KUN DANG PHARMACEUTICAL CORP., priority 2020, published 2023).

Read-outs that look alike come from different tables or passages of the source.

The target of one experiment is T1, human recombinant HDAC1 (Homo sapiens, UniProt Q13547).
T1 construct: purchased Enzo Life Science, Inc. BML-SE456
The experiment is described as follows: HDAC1 enzyme activity inhibition (HDAC Fluorimetric Drug Discovery Kit). The class given is biochemical. Particulars: read-out: HDAC1. In a few lines:
(§1)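 Fluorescence from a Fluor de Lys developer step (30 minutes) reports residual deacetylation after a 60-minute, 30° C reaction of […] enzyme with 10 μM substrate and 5-fold compound dilutions.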

The next experiment addresses T2, human recombinant HDAC6 (Homo sapiens, UniProt Q9UBN7).
T2 construct: purchased Calbiochem Inc. 382180
T2 sequence (Q9UBN7 1-1215): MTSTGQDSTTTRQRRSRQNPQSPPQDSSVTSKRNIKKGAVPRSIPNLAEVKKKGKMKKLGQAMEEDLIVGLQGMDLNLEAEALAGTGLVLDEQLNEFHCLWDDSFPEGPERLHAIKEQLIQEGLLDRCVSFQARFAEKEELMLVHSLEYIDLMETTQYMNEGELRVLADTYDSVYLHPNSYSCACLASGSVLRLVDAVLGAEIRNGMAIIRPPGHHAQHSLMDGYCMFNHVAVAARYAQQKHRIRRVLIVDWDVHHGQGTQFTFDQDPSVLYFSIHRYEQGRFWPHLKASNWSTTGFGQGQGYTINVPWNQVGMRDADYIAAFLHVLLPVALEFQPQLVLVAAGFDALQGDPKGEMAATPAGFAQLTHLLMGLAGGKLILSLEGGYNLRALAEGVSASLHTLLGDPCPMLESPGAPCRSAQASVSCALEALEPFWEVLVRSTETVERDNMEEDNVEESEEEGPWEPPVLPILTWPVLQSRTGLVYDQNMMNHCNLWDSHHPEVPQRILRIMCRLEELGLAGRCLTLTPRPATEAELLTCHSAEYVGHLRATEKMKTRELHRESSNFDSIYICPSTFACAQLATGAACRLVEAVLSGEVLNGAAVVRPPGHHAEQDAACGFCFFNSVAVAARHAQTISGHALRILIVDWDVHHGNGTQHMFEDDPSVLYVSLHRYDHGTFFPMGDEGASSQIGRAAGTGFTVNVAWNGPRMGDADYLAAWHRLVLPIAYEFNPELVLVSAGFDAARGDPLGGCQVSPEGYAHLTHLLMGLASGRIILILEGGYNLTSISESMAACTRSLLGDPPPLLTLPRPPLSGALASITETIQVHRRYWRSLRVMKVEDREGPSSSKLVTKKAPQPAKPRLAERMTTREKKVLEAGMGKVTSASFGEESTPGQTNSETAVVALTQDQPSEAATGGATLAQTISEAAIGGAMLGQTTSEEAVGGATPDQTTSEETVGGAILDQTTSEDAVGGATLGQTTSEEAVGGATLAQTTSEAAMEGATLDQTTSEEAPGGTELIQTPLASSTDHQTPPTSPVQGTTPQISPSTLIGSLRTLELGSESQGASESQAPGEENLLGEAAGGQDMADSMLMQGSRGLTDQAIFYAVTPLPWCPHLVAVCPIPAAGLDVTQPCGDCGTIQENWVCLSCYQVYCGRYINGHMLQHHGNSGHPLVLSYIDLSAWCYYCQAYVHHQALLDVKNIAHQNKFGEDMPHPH
The experiment is described as follows: HDAC6 enzyme activity inhibition (HDAC Fluorimetric Drug Discovery Kit). The class given is biochemical. The essentials:
as §1

For experiment [1], the system named is hippocampal neurons from a Sprague-Dawley (SD) rat fetus. The experiment in a line: Effect of HDAC6-specific inhibitor on axonal transport of mitochondria in amyloid-beta treated neurons. The class given is cell-based. Particulars: transport velocity of mitochondria in neuronal axon after normalization; vehicle = 100%, amyloid beta treatment group = 0%; compound treatment for three hours. In a few lines: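 Rat E17-18 hippocampal neurons exposed to amyloid-beta fragments […]; after 24 h (day 8 in vitro) compound added for 3 h, mitochondria stained with MitoTracker Red CMXRos. Confocal imaging every 1 s for 1 min gave per-mitochondrion velocity, normalized vehicle = 100%, amyloid-beta = 0%.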

[2] abbreviates: human recombinant HDAC1, IC50 calculated with GraphPad Prism.
The mark [3] stands for this setting: human recombinant HDAC6, IC50 calculated with GraphPad Prism.
Setting [4] is: human recombinant HDAC1, Fluor de Lys substrate, 30° C. 60 minutes.
The mark [5] stands for this setting: human recombinant HDAC6, same protocol as HDAC1.

T1 sequence (Q13547 whole entry): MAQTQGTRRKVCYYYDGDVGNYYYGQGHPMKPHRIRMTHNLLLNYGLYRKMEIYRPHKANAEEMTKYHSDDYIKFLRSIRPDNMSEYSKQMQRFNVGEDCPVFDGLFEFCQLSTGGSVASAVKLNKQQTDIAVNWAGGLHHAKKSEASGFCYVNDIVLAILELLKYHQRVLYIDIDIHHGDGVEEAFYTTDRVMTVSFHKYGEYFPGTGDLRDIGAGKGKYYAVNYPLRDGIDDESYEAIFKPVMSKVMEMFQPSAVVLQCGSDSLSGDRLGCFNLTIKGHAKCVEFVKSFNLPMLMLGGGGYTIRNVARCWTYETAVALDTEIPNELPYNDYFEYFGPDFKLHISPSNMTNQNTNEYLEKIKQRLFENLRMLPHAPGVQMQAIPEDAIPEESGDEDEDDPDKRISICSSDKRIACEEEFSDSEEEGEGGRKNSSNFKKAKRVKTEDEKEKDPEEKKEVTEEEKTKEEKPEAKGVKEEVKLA

As to `FC(F)c1nnc(-c2ccc(Cn3cc(-c4ccc5cn[nH]c5c4)nn3)cc2)o1` [Compound 4341, 2-(4-((4-(1H-indazol-6-yl)-1H-1,2,3-triazol-1-yl)methyl)phenyl)-5-(difluoromethyl)-1,3,4-oxadiazole], the IC50 at human recombinant HDAC1 (setting [2]) is above 50000 nM; at human recombinant HDAC6 (setting [3]), 40.9 nM. The “HDAC6 selectivity (fold)” value on human recombinant HDAC6 (HDAC1 IC50 / HDAC6 IC50) turned out to be 1222 fold. Besides, in experiment [1], the “Velocity distribution (%)” value is listed as “** (**, 50%˜100%)”.

Consider `Fc1cc(-c2nnc(C(F)F)o2)cnc1Cn1cc(-c2ccc(CN3CCC3)s2)nn1` [Compound 18309, 2-(6-((4-(5-(azetidin-1-ylmethyl)thiophen-2-yl)-1H-1,2,3-triazol-1-yl)methyl)-5-fluoropyridin-3-yl)-5-(difluoromethyl)-1,3,4-oxadiazole], for which the IC50 on human recombinant HDAC1 (setting [4]) is above 50000 nM; at human recombinant HDAC6 (setting [5]), 43.1 nM. Moreover, at human recombinant HDAC6 (HDAC6 over HDAC1), the “HDAC6 selectivity (fold)” value amounted to 1160 fold. In addition, the “Velocity distribution (%)” value in experiment [1] is recorded as “** (**, 50%˜100%)”.

`Fc1cc(-c2nnc(C(F)F)o2)cnc1Cn1cc(-c2ccc(CN3CCCC3)cc2)nn1` [Compound 18058, 2-(difluoromethyl)-5-(5-fluoro-6-((4-(4-(pyrrolidin-1-ylmethyl)phenyl)-1H-1,2,3-triazol-1-yl)methyl)pyridin-3-yl)-1,3,4-oxadiazole]: the IC50 at human recombinant HDAC1 (setting [4]) was above 50000 nM; at human recombinant HDAC6 (setting [5]), 22 nM. Besides, on human recombinant HDAC6 (HDAC6 over HDAC1), the “HDAC6 selectivity (fold)” value was 2272 fold. For the same compound, in experiment [1], the “Velocity distribution (%)” value was “*** (***, >100%)”.

As to `FC(F)c1nnc(-c2ccc(Cn3cc(-c4cncc(Cl)c4)nn3)nc2)o1` [Compound 3883, 2-(6-((4-(5-chloropyridin-3-yl)-1H-1,2,3-triazol-1-yl)methyl)pyridin-3-yl)-5-(difluoromethyl)-1,3,4-oxadiazole], the IC50 is above 50000 nM at human recombinant HDAC1 (setting [2]) and 33.9 nM at human recombinant HDAC6 (setting [3]). The “HDAC6 selectivity (fold)” value on human recombinant HDAC6 (HDAC1 IC50 / HDAC6 IC50) was determined as 1474 fold. In experiment [1], the “Velocity distribution (%)” value is “* (*, 0%˜50%)”.

Take `FC(F)c1nnc(-c2ccc(Cn3cc(-c4ccc5c(c4)CCN(C4COC4)C5)nn3)nc2)o1` [Compound 4055, 2-(difluoromethyl)-5-(6-((4-(2-(oxetan-3-yl)-1,2,3,4-tetrahydroisoquinolin-6-yl)-1H-1,2,3-triazol-1-yl)methyl)pyridin-3-yl)-1,3,4-oxadiazole]: the IC50 was above 50000 nM at human recombinant HDAC1 (setting [2]) and 57.6 nM at human recombinant HDAC6 (setting [3]). For the same compound, the “HDAC6 selectivity (fold)” value on human recombinant HDAC6 (HDAC1 IC50 / HDAC6 IC50) is 868 fold. The “Velocity distribution (%)” value in experiment [1] is “* (*, 0%˜50%)”.

On to `CN1CCC(Nc2cccc(-c3cn(Cc4ccc(-c5nnc(C(F)F)o5)cc4F)nn3)c2F)CC1` [Compound 4431, N-(3-(1-(4-(5-(difluoromethyl)-1,3,4-oxadiazol-2-yl)-2-fluorobenzyl)-1H-1,2,3-triazol-4-yl)-2-fluorophenyl)-1-methylpiperidin-4-amine], for which the IC50 at human recombinant HDAC1 (setting [2]) was above 50000 nM; on human recombinant HDAC6 (setting [3]), 19 nM. Moreover, the “HDAC6 selectivity (fold)” value on human recombinant HDAC6 (HDAC1 IC50 / HDAC6 IC50) is 2631 fold. In addition, in experiment [1], the “Velocity distribution (%)” value is “*** (***, >100%)”.

For `FC(F)c1nnc(-c2ccc(Cn3cc(-c4cccc(N5CCN(C6COC6)CC5)c4)nn3)cc2)o1` [Compound 4370, 2-(difluoromethyl)-5-(4-((4-(3-(4-(oxetan-3-yl)piperazin-1-yl)phenyl)-1H-1,2,3-triazol-1-yl)methyl)phenyl)-1,3,4-oxadiazole], the IC50 at human recombinant HDAC1 (setting [2]) was above 50000 nM; at human recombinant HDAC6 (setting [3]), 69.9 nM. Besides, the “HDAC6 selectivity (fold)” value at human recombinant HDAC6 (HDAC1 IC50 / HDAC6 IC50) turned out to be 715 fold. Moreover, the “Velocity distribution (%)” value in experiment [1] is recorded as “*** (***, >100%)”.

Take `Cc1ccc(-c2cn(Cc3ccc(-c4nnc(C(F)F)o4)cn3)nn2)cn1` [Compound 3925, 2-(difluoromethyl)-5-(6-((4-(6-methylpyridin-3-yl)-1H-1,2,3-triazol-1-yl)methyl)pyridin-3-yl)-1,3,4-oxadiazole]: the IC50 at human recombinant HDAC1 (setting [2]) was above 50000 nM; at human recombinant HDAC6 (setting [3]), 35.1 nM. The “HDAC6 selectivity (fold)” value at human recombinant HDAC6 (HDAC1 IC50 / HDAC6 IC50) was found to be 1424 fold. Further, in experiment [1], the “Velocity distribution (%)” value is recorded as “*** (***, >100%)”.

As for `Fc1cc(-c2nnc(C(F)F)o2)ccc1Cn1cc(-c2ccc3c(c2)CN(C2CCC2)CC3)nn1` [Compound 4366, 2-(4-((4-(2-cyclobutyl-1,2,3,4-tetrahydroisoquinolin-7-yl)-1H-1,2,3-triazol-1-yl)methyl)-3-fluorophenyl)-5-(difluoromethyl)-1,3,4-oxadiazole], the figures for the IC50 at human recombinant HDAC1 (setting [2]) and at human recombinant HDAC6 (setting [3]) were above 50000 nM and 36.8 nM, respectively. Moreover, on human recombinant HDAC6 (HDAC1 IC50 / HDAC6 IC50), the “HDAC6 selectivity (fold)” value worked out at 1358 fold. In experiment [1], the “Velocity distribution (%)” value was “*** (***, >100%)”.

Consider `CN(C)Cc1ccc(-c2cn(Cc3ccc(-c4nnc(C(F)F)o4)cc3F)nn2)cn1` [Compound 18176, 1-(5-(1-(4-(5-(difluoromethyl)-1,3,4-oxadiazol-2-yl)-2-fluorobenzyl)-1H-1,2,3-triazol-4-yl)pyridin-2-yl)-N,N-dimethylmethanamine], for which the IC50 on human recombinant HDAC1 (setting [4]) was above 50000 nM; at human recombinant HDAC6 (setting [5]) it was 70.9 nM. The “HDAC6 selectivity (fold)” value at human recombinant HDAC6 (HDAC6 over HDAC1) stood at 705 fold. Further, in experiment [1], the “Velocity distribution (%)” value is “** (**, 50%˜100%)”.

Regarding `CCC(=O)N1CCN(c2cccc(-c3cn(Cc4ccc(-c5nnc(C(F)F)o5)cn4)nn3)c2)CC1` [Compound 3991], the IC50 is above 50000 nM on human recombinant HDAC1 (setting [2]) and 28.2 nM at human recombinant HDAC6 (setting [3]). Also, the “HDAC6 selectivity (fold)” value at human recombinant HDAC6 (HDAC1 IC50 / HDAC6 IC50) was 1773 fold. In addition, in experiment [1], the “Velocity distribution (%)” value is “** (**, 50%˜100%)”.

For `CC(=O)N1CCN(c2cccc(-c3cn(Cc4ccc(-c5nnc(C(F)F)o5)cn4)nn3)c2)CC1` [Compound 3990, 1-(4-(3-(1-((5-(5-(difluoromethyl)-1,3,4-oxadiazol-2-yl)pyridin-2-yl)methyl)-1H-1,2,3-triazol-4-yl)phenyl)piperazin-1-yl)ethan-1-one], the IC50 on human recombinant HDAC1 (setting [2]) was above 50000 nM; at human recombinant HDAC6 (setting [3]) it was 19 nM. Also, the “HDAC6 selectivity (fold)” value on human recombinant HDAC6 (HDAC1 IC50 / HDAC6 IC50) stood at 2631 fold. The “Velocity distribution (%)” value in experiment [1] is “** (**, 50%˜100%)”.

`CC(C)(F)C(=O)Nc1cccc(-c2cn(Cc3ccc(-c4nnc(C(F)F)o4)cn3)nn2)c1` [Compound 3987, N-(3-(1-((5-(5-(difluoromethyl)-1,3,4-oxadiazol-2-yl)pyridin-2-yl)methyl)-1H-1,2,3-triazol-4-yl)phenyl)-2-fluoro-2-methylpropanamide]: the IC50 on human recombinant HDAC1 (setting [2]) is above 50000 nM; at human recombinant HDAC6 (setting [3]), 9.1 nM. For the same compound, the “HDAC6 selectivity (fold)” value at human recombinant HDAC6 (HDAC1 IC50 / HDAC6 IC50) is 5494 fold. For the same compound, the “Velocity distribution (%)” value in experiment [1] is recorded as “* (*, 0%˜50%)”.

For `CC(C)N1CCN(c2cccc(-c3cn(Cc4ccc(-c5nnc(C(F)F)o5)cc4F)nn3)n2)CC1` [Compound 17363, 2-(difluoromethyl)-5-(3-fluoro-4-((4-(6-(4-isopropylpiperazin-1-yl)pyridin-2-yl)-1H-1,2,3-triazol-1-yl)methyl)phenyl)-1,3,4-oxadiazole], the values for the IC50 at human recombinant HDAC1 (setting [4]) and on human recombinant HDAC6 (setting [5]) were above 50000 nM and 22.6 nM, respectively. Besides, the “HDAC6 selectivity (fold)” value at human recombinant HDAC6 (HDAC6 over HDAC1) is reported as 2212 fold. The “Velocity distribution (%)” value in experiment [1] is on record as “** (**, 50%˜100%)”.

For `FC(F)c1nnc(-c2ccc(Cn3cc(-c4ccc5[nH]cc(CN6CCOCC6)c5c4)nn3)nc2)o1` [Compound 4187, 4-((5-(1-((5-(5-(difluoromethyl)-1,3,4-oxadiazol-2-yl)pyridin-2-yl)methyl)-1H-1,2,3-triazol-4-yl)-1H-indol-3-yl)methyl)morpholine], the IC50 at human recombinant HDAC1 (setting [2]) was above 50000 nM; at human recombinant HDAC6 (setting [3]), 8.9 nM. Besides, the “HDAC6 selectivity (fold)” value at human recombinant HDAC6 (HDAC1 IC50 / HDAC6 IC50) is 5617 fold. The “Velocity distribution (%)” value in experiment [1] was “* (*, 0%˜50%)”.
